According to the supplement of paper PMC10307832:

What was measured:
Assay in all cases: relative viability (nuclei count vs DMSO), 5 days (fraction); higher = more cells survive
[1] = compound: N#CC[C@H](C1CCCC1)n1cc(-c2ncnc3[nH]ccc23)cn1 [Ruxolitinib] + CS(=O)(=O)CCNCc1ccc(-c2ccc3ncnc(Nc4ccc(OCc5cccc(F)c5)c(Cl)c4)c3c2)o1 [Lapatinib] (partner 2 µM)
In short: (§1)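 One day after seeding in 1536-well plates, lung cancer cell lines were dosed by pin tool. Dosing was either single-drug or a fixed anchor-drug dose plus five library-drug doses (not always all listed) in √10 steps. After 5 days, nuclei were stained in one fix-and-stain step and counted on 4× images, and relative viability is the nuclei count of treated wells over that of vehicle wells, given as the median of duplicate plates.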

[2] = compound: CS(=O)(=O)c1ccc(C(=O)Nc2ccc(Cl)c(-c3ccccn3)c2)c(Cl)c1 [Vismodegib] + CCNC(=O)c1noc(-c2cc(C(C)C)c(O)cc2O)c1-c1ccc(CN2CCOCC2)cc1 [Luminespib] (partner 0.01 µM)
In short: as §1

[3] = compound: CS(=O)(=O)c1ccc(C(=O)Nc2ccc(Cl)c(-c3ccccn3)c2)c(Cl)c1 [Vismodegib] + O=C(c1cc(Cc2n[nH]c(=O)c3ccccc23)ccc1F)N1CCN(C(=O)C2CC2)CC1 [Olaparib] (partner 8 µM)
In short: as §1

[4] = compound: N#CC[C@H](C1CCCC1)n1cc(-c2ncnc3[nH]ccc23)cn1 [Ruxolitinib] + Nc1ncn([C@H]2C[C@H](O)[C@@H](CO)O2)c(=O)n1 [Decitabine] (partner 2 µM)
In short: as §1

Row | Cell Line | relative viability ([1]; first compound 0.08 µM) | relative viability ([1]; first compound 0.253 µM) | relative viability ([1]; first compound 0.8 µM) | relative viability ([1]; first compound 2.53 µM) | relative viability ([1]; first compound 8 µM) | relative viability ([2]; first compound 0.08 µM) | relative viability ([2]; first compound 0.253 µM) | relative viability ([2]; first compound 0.8 µM) | relative viability ([2]; first compound 2.53 µM) | relative viability ([2]; first compound 8 µM) | relative viability ([3]; first compound 0.08 µM) | relative viability ([3]; first compound 0.253 µM) | relative viability ([3]; first compound 0.8 µM) | relative viability ([3]; first compound 2.53 µM) | relative viability ([3]; first compound 8 µM) | relative viability ([4]; first compound 0.08 µM) | relative viability ([4]; first compound 0.253 µM) | relative viability ([4]; first compound 0.8 µM) | relative viability ([4]; first compound 2.53 µM) | relative viability ([4]; first compound 8 µM)
1 | 201T | 1.1 | 1.14 | 1.11 | 1.28 | 1.26 | 1.02 | 1 | 1.07 | 1.11 | 0.968 | 0.826 | 0.875 | 0.798 | 0.845 | 0.822 | 0.949 | 0.914 | 1 | 1.02 | 0.973
2 | A549 | 0.998 | 1.03 | 1.04 | 0.918 | 0.636 | – | – | – | – | – | 0.247 | 0.358 | 0.31 | 0.352 | 0.194 | 0.215 | 0.254 | 0.322 | 0.197 | 0.28
3 | A-427 | 0.875 | 1.14 | 1.09 | 1.11 | 0.967 | 0.912 | 0.831 | 0.856 | 0.876 | 0.824 | 0.743 | 0.804 | 0.642 | 0.675 | 0.786 | 0.566 | 0.558 | 0.579 | 0.605 | 0.58
4 | ABC-1 | 1.19 | 1.19 | 1.4 | 1.11 | 1.17 | 0.577 | 0.381 | 0.551 | 0.672 | 0.405 | 0.76 | 0.788 | 0.725 | 1.01 | 1.09 | – | 1.03 | 1.38 | 1.21 | 1.21
5 | BEN | 0.798 | 0.76 | 0.766 | 0.767 | 0.777 | 0.363 | 0.293 | 0.475 | 0.244 | 0.326 | 1.14 | 1.05 | 0.889 | 1.08 | 1.13 | 0.5 | 0.699 | 0.816 | 0.592 | 0.773
6 | CAL-12T | – | 0.643 | 0.88 | 0.697 | 0.623 | 0.531 | 0.366 | 0.436 | 0.503 | 0.575 | 0.81 | 0.691 | 0.411 | 0.757 | 0.713 | – | – | – | – | –
7 | COR-L23 | 1 | 0.9 | 1.16 | 0.744 | 0.823 | 0.672 | 0.779 | 0.586 | 0.675 | 0.75 | 0.35 | 0.339 | 0.337 | 0.281 | 0.317 | 0.493 | 0.429 | 0.521 | 0.367 | 0.322
8 | COR-L 105 | 0.394 | 0.341 | 0.454 | 0.461 | 0.333 | 0.657 | 0.785 | 0.92 | 0.973 | 0.773 | 0.605 | 0.64 | 0.69 | 0.698 | 0.537 | – | 0.57 | 0.656 | 0.659 | 0.58
9 | Calu-6 | 1.09 | 1.09 | 1.17 | 1 | 0.647 | – | – | – | – | – | 0.589 | 0.558 | 0.562 | 0.434 | 0.587 | – | – | – | – | –
10 | ChaGo-K-1 | – | – | – | – | – | 0.565 | 0.622 | 0.598 | 0.525 | 0.516 | 0.452 | 0.436 | 0.455 | 0.398 | 0.405 | 0.515 | 0.529 | 0.52 | 0.447 | 0.478
11 | EBC-1 | 0.21 | – | 0.216 | 0.232 | 0.195 | – | – | – | – | – | 0.662 | 0.674 | 0.751 | 0.69 | 0.74 | – | – | – | – | –
12 | EKVX | 0.224 | 0.194 | 0.231 | 0.207 | 0.188 | 0.749 | 0.797 | 0.929 | 0.864 | 0.896 | – | 0.737 | 0.818 | 0.778 | 0.866 | – | 0.3 | 0.35 | 0.337 | 0.414
13 | EMC-BAC-2 | 0.945 | 0.786 | 0.974 | 0.901 | 0.713 | 1.14 | 1.07 | 1.22 | 1.12 | 1.21 | 0.523 | 0.488 | 0.487 | 0.472 | 0.526 | 0.915 | 0.916 | 1.14 | 0.921 | 0.851
14 | EPLC-272H | 0.164 | 1.08 | 0.953 | 1 | 0.671 | 0.298 | 0.224 | 0.263 | 0.235 | 0.442 | 0.839 | 0.69 | 0.674 | 0.783 | 0.837 | 0.408 | 0.367 | 0.439 | 0.414 | 0.36
15 | H3255 | – | 0.236 | 0.249 | 0.28 | 0.226 | 0.798 | 0.996 | 0.799 | 0.818 | 0.857 | 0.586 | 0.554 | 0.516 | 0.54 | 0.517 | – | 0.568 | 0.781 | 0.535 | 0.609
16 | HARA | 0.766 | 0.631 | 0.76 | 0.7 | 0.675 | 0.699 | 0.843 | 0.888 | 0.655 | 0.779 | 0.786 | – | 0.945 | 0.856 | 0.943 | 0.63 | 0.472 | 0.631 | 0.565 | 0.489
17 | HCC-15 | 0.859 | 0.905 | 0.869 | 0.786 | 0.779 | 0.17 | 0.267 | 0.254 | 0.508 | 0.29 | 0.652 | 0.709 | 0.718 | 0.737 | 0.608 | 0.677 | 0.553 | 0.7 | 0.55 | 0.48
18 | HCC-44 | 1.06 | 1.07 | 1.04 | 1.01 | 0.783 | 1 | 0.966 | 1 | 0.979 | 1.05 | 0.945 | 0.919 | 0.981 | 1.01 | 0.962 | 0.931 | 0.971 | 0.895 | 0.877 | 0.83
